# Measurements published in the supplement of paper PMC10307832.
# Experiments:
# Experiment in all cases: relative viability (nuclei count vs DMSO), 5 days (fraction); higher = more cells survive
# AZD5582 + Lapatinib = compound: C[C@@H](C(=O)N[C@@H](C1CCCCC1)C(=O)N2CCC[C@H]2C(=O)N[C@@H]3[C@@H](CC4=CC=CC=C34)OCC#CC#CCO[C@@H]5CC6=CC=CC=C6[C@@H]5NC(=O)[C@@H]7CCCN7C(=O)[C@H](C8CCCCC8)NC(=O)[C@H](C)NC)NC [AZD5582] + CS(=O)(=O)CCNCc1ccc(-c2ccc3ncnc(Nc4ccc(OCc5cccc(F)c5)c(Cl)c4)c3c2)o1 [Lapatinib] (partner 2 µM)
# How it was run: (§1)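 A single step with final 0.05% Triton X-100, 1% formaldehyde and 1 ug/ml Hoechst fixed the cells and stained nuclei 5 days after treatment. Lung cancer cell lines in 1536-well plates had been treated by pin tool the day after seeding with one drug alone or a fixed anchor-drug dose plus five library-drug doses (not always all listed) in √10 steps, and nuclei were counted on 4× images. Relative viability is the ratio of nuclei in treated wells to nuclei in vehicle wells, taken as the median of duplicate plates.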
# AZD5582 + Pictilisib = compound: C[C@@H](C(=O)N[C@@H](C1CCCCC1)C(=O)N2CCC[C@H]2C(=O)N[C@@H]3[C@@H](CC4=CC=CC=C34)OCC#CC#CCO[C@@H]5CC6=CC=CC=C6[C@@H]5NC(=O)[C@@H]7CCCN7C(=O)[C@H](C8CCCCC8)NC(=O)[C@H](C)NC)NC [AZD5582] + CS(=O)(=O)N1CCN(Cc2cc3nc(-c4cccc5[nH]ncc45)nc(N4CCOCC4)c3s2)CC1 [Pictilisib] (partner 1 µM)
# How it was run: as §1
# Temozolomide + Lapatinib = compound: Cn1nnc2c(C(N)=O)ncn2c1=O [Temozolomide] + CS(=O)(=O)CCNCc1ccc(-c2ccc3ncnc(Nc4ccc(OCc5cccc(F)c5)c(Cl)c4)c3c2)o1 [Lapatinib] (partner 2 µM)
# How it was run: as §1
# Temozolomide + Alpelisib = compound: Cn1nnc2c(C(N)=O)ncn2c1=O [Temozolomide] + Cc1nc(NC(=O)N2CCC[C@H]2C(N)=O)sc1-c1ccnc(C(C)(C)C(F)(F)F)c1 [Alpelisib] (partner 2 µM)
# How it was run: as §1
Cell Line,relative viability (AZD5582 + Lapatinib; first compound 0.001581 µM),relative viability (AZD5582 + Lapatinib; first compound 0.005 µM),relative viability (AZD5582 + Lapatinib; first compound 0.01581 µM),relative viability (AZD5582 + Lapatinib; first compound 0.05 µM),relative viability (AZD5582 + Pictilisib; first compound 0.001581 µM),relative viability (AZD5582 + Pictilisib; first compound 0.005 µM),relative viability (AZD5582 + Pictilisib; first compound 0.01581 µM),relative viability (AZD5582 + Pictilisib; first compound 0.05 µM),relative viability (Temozolomide + Lapatinib; first compound 0.2 µM),relative viability (Temozolomide + Lapatinib; first compound 0.6325 µM),relative viability (Temozolomide + Lapatinib; first compound 2 µM),relative viability (Temozolomide + Lapatinib; first compound 6.325 µM),relative viability (Temozolomide + Lapatinib; first compound 20 µM),relative viability (Temozolomide + Alpelisib; first compound 0.2 µM),relative viability (Temozolomide + Alpelisib; first compound 0.6325 µM),relative viability (Temozolomide + Alpelisib; first compound 2 µM),relative viability (Temozolomide + Alpelisib; first compound 6.325 µM),relative viability (Temozolomide + Alpelisib; first compound 20 µM)
HCC-78,0.703,0.794,0.603,0.198,0.198,0.24,0.147,0.169,0.938,0.602,0.791,0.321,0.826,0.232,0.343,0.348,0.356,0.284
HCC-366,0.936,1.05,0.961,1.08,0.0939,0.203,0.102,0.205,1.18,1,1.1,1.08,1.07,0.337,0.391,0.456,0.462,0.358
HCC-827,0.222,0.183,0.179,0.163,0.995,0.954,0.979,1.06,0.207,0.238,0.191,0.191,0.195,0.995,0.978,1.02,0.995,0.136
HOP-62,0.748,1.06,1.02,0.958,0.445,0.655,0.256,0.62,1.29,1.02,1.05,1.05,0.75,1.18,1,0.896,0.847,0.814
IA-LM,0.623,0.725,0.809,0.584,–,0.355,0.347,0.314,0.913,0.976,0.935,0.758,0.716,0.956,0.716,0.811,0.716,0.711
LC-2-ad,0.966,1.07,0.888,0.904,0.327,0.673,0.644,0.662,0.961,1.02,0.962,0.964,0.895,0.896,0.842,0.942,0.818,0.642
LCLC-97TM1,–,0.627,0.404,0.294,–,0.244,0.15,0.154,0.929,1.28,0.655,0.611,1.21,0.253,0.236,0.28,0.246,0.249
LCLC-103H,–,–,–,–,0.649,0.699,0.454,0.559,–,–,–,–,–,0.819,0.976,1.09,0.999,0.927
LK-2,0.654,1.03,0.965,0.952,0.474,0.575,0.581,0.603,1.01,1.04,0.796,0.611,0.392,0.544,1.07,1.1,0.466,0.391
LOU-NH91,0.815,0.817,0.794,0.797,0.557,0.521,0.534,0.539,0.747,0.782,0.791,0.732,0.763,0.57,0.726,0.789,0.702,0.47
LU99A,1.15,1.28,0.923,1.17,0.315,0.323,0.291,0.37,1.13,1.03,0.977,0.87,0.966,0.619,0.49,0.5,0.489,0.56
LXF-289,0.895,0.929,0.823,0.922,0.705,0.795,0.757,0.794,0.939,0.934,0.919,0.847,0.861,1.06,0.997,1.04,0.992,0.947
NCI-H23,0.664,0.951,0.783,0.652,0.419,0.387,0.408,0.327,1.22,1.04,1.15,0.969,0.912,0.645,0.73,0.552,0.764,0.734
NCI-H322M,0.678,0.796,0.619,0.774,0.554,0.632,0.715,0.625,–,0.568,0.574,0.599,0.535,–,0.81,0.803,0.747,0.609
NCI-H358,0.484,0.566,0.477,0.452,0.426,0.308,0.394,0.308,0.538,0.572,0.475,0.439,0.419,0.657,0.729,0.912,0.833,0.676
NCI-H441,–,–,–,–,0.419,0.536,0.405,0.47,–,–,–,–,–,0.881,0.804,0.901,0.743,0.566
NCI-H460,0.836,0.959,0.932,1.43,0.277,0.329,0.366,0.337,1.23,1.03,1.12,1,1.24,0.58,0.526,0.51,0.479,0.461
NCI-H520,0.738,0.945,0.818,1.01,0.266,0.283,0.303,0.311,0.927,0.87,1,0.903,0.993,1.01,1.12,1.05,0.893,1.01
NCI-H1650,0.587,0.832,0.581,0.37,0.535,0.738,0.485,0.604,0.991,0.925,0.783,0.662,0.743,–,–,–,–,–
